By IC50 is commonly meant the concentration that inhibits the measured activity by half. A lower IC50 goes with inhibition by little substance.

Experimental findings from ChEMBL document CHEMBL1151249, “Cytotoxic and antimicrobial constituents of the bark of Diospyros maritima collected in two geographical locations in Indonesia” (J Nat Prod, 2004) are described below.

Values after ≈ are worked out from the molar mass of the structure shown.

Series [1] concerns Micrococcus luteus. Kind of series: Antimicrobial activity against Micrococcus luteus after 18 hrs by zone-of-inhibition assay. It is filed as functional, organism-based.
Series [2] has as its system Staphylococcus aureus. Kind of series: Antimicrobial activity against Staphylococcus aureus assessed as 99.9 % growth inhibition after 18 hrs by zone-of-inhibition assay. It is filed as functional.
Series [3] concerns Micrococcus luteus. Kind of series: Antimicrobial activity against Micrococcus luteus assessed as 99.9 % growth inhibition after 18 hrs by zone-of-inhibition assay. It is filed as functional.
In the next series the test system is LNCaP. Kind of series: Cytotoxicity against human LNCAP cells. It is filed as functional. To be noted: read-out: ED50 (the source's name).
The subject of another series is KB. The series is described as follows: Cytotoxicity against human KB cells. It is filed as functional, cell-based.
In series [4] the test system is Mycolicibacterium smegmatis. The series is described as follows: Antimicrobial activity against Mycobacterium smegmatis after 18 hrs by zone-of-inhibition assay. It is filed as functional, organism-based.
The test system of a further series is Lu1. The series is described as follows: Cytotoxicity against human Lu1 cells. To be noted: read-out: ED50 (the source's name). It is filed as functional.
In a further series the test system is Mycobacterium avium. The series is described as follows: Antimicrobial activity against Mycobacterium avium after 18 hrs by zone-of-inhibition assay. It is filed as functional, organism-based.
The test system of series [5] is Candida albicans. Kind of series: Antimicrobial activity against Candida albicans assessed as 99.9 % growth inhibition after 18 hrs by zone-of-inhibition assay. It is filed as functional.
Series [6] relates to Aspergillus niger. Kind of series: Antifungal activity against Aspergillus niger after 18 hrs by zone-of-inhibition assay. It is filed as functional, organism-based.
Series [7] deals with Cryptococcus neoformans. The series is described as follows: Antifungal activity against Cryptococcus neoformans assessed as 99.9 % growth inhibition after 18 hrs by zone-of-inhibition assay. It is filed as functional.
A short description of series [8]: Cytotoxicity against human HUVEC. To be noted: HUVEC cells, read-out: ED50 (the source's name). It is filed as cell-based.
Series [9] deals with Aspergillus niger. Kind of series: Antifungal activity against Aspergillus niger assessed as 99.9 % growth inhibition after 18 hrs by zone-of-inhibition assay. It is filed as functional.
In series [10] the test system is Mycolicibacterium smegmatis. The series is described as follows: Antimicrobial activity against Mycobacterium smegmatis assessed as 99.9 % growth inhibition after 18 hrs by zone-of-inhibition assay. It is filed as functional.
Series [11] has as its system Saccharomyces cerevisiae. Kind of series: Antifungal activity against Saccharomyces cerevisiae assessed as 99.9 % growth inhibition after 18 hrs by zone-of-inhibition assay. It is filed as functional.
In series [12] the test system is Candida albicans. The series is described as follows: Antifungal activity against Candida albicans after 18 hrs by zone-of-inhibition assay. It is filed as functional, organism-based. The conditions noted are these: for IC50: Candida albicans, 18 h.
Series [13] has as its system Cryptococcus neoformans. The series is described as follows: Antifungal activity against Cryptococcus neoformans after 18 hrs by zone-of-inhibition assay. It is filed as functional, organism-based. The conditions noted are these: for IC50: Cryptococcus neoformans, 18 h.
Series [14] concerns Saccharomyces cerevisiae. Kind of series: Antifungal activity against Saccharomyces cerevisiae after 18 hrs by zone-of-inhibition assay. It is filed as functional, organism-based.
Series [15] deals with Staphylococcus aureus. The series is described as follows: Antimicrobial activity against Staphylococcus aureus after 18 hrs by zone-of-inhibition assay. It is filed as functional, organism-based.
Where [16] appears, read: read-out: ED50 (the source's name).

Consider `COc1cc2ccc(=O)oc2cc1O` [SCOPOLETIN], for which the concentration for half-maximal inhibition (IC50) (in the series on Micrococcus luteus [1]; in [4]; in the series on Mycobacterium avium; in the series with Aspergillus niger [6]; with Candida albicans [12]; in the series with Cryptococcus neoformans [13]) was greater than 1000 µg/mL throughout. Besides, the IC50 with Saccharomyces cerevisiae [14] and with Staphylococcus aureus [15] was greater than 1000 µg/mL throughout. The Activity (with Staphylococcus aureus [2]; in the series with Micrococcus luteus [3]; in the series on Candida albicans [5]; with Cryptococcus neoformans [7]; with Aspergillus niger [9]; in [10]) was greater than 1000 µg/mL in each case. For the same compound, the Activity with Saccharomyces cerevisiae [11] is greater than 1000 µg/mL. For the same compound, the EC50 in the series with LNCaP, in the series on KB (setting [16]) and in the series on Lu1 was greater than 5 µg/mL in each case. Besides, in [8], the CC50 is greater than 5 µg/mL.
For the compound `Cc1cc(O)c2c(c1)[C@@H](O)CCC2=O` [4S-SHINANOLONE], the IC50 (in the series on Micrococcus luteus [1]; in [4]; in the series on Mycobacterium avium; in the series with Aspergillus niger [6]; with Candida albicans [12]; in the series with Cryptococcus neoformans [13]) was greater than 1000 µg/mL in each case. The IC50 in the series on Saccharomyces cerevisiae [14] and in the series with Staphylococcus aureus [15] was greater than 1000 µg/mL each time. In addition, the Activity (in the series with Staphylococcus aureus [2]; with Micrococcus luteus [3]; in the series with Candida albicans [5]; in the series with Cryptococcus neoformans [7]; in the series on Aspergillus niger [9]; in [10]) was greater than 1000 µg/mL each time. Also, the Activity with Saccharomyces cerevisiae [11] is greater than 1000 µg/mL. The EC50 in the series on LNCaP, with KB (setting [16]) and in the series with Lu1 was greater than 5 µg/mL in each case. For the same compound, in series [8], the CC50 is greater than 5 µg/mL.
As for `COC(=O)c1c(O)cc(C)cc1O`, the IC50 (with Micrococcus luteus [1]; in series [4]; with Mycobacterium avium; with Aspergillus niger [6]; in the series on Candida albicans [12]; with Cryptococcus neoformans [13]) was greater than 1000 µg/mL each time. The IC50 in the series with Saccharomyces cerevisiae [14] and in the series on Staphylococcus aureus [15] was greater than 1000 µg/mL each time. The Activity (in the series with Staphylococcus aureus [2]; in the series with Micrococcus luteus [3]; in the series with Candida albicans [5]; with Cryptococcus neoformans [7]; in the series with Aspergillus niger [9]; in series [10]) was greater than 1000 µg/mL each time. Besides, the Activity in the series with Saccharomyces cerevisiae [11] was greater than 1000 µg/mL. The EC50 with LNCaP, with KB (setting [16]) and in the series with Lu1 was greater than 5 µg/mL throughout. Also, the CC50 in [8] is greater than 5 µg/mL.
Turning to `COc1cc2c[n+](C)c3c4cc5c(cc4ccc3c2cc1OC)OCO5.[Cl-]` [NITIDINE CHLORIDE], the IC50 in the series with Micrococcus luteus [1] was 200 µg/mL; in series [4] it was 1000 µg/mL; in the series on Mycobacterium avium, 3000 µg/mL; with Aspergillus niger [6], 3000 µg/mL; in the series on Saccharomyces cerevisiae [14], 300 µg/mL; in the series on Staphylococcus aureus [15] it was 300 µg/mL. Also, the Activity in the series on Staphylococcus aureus [2] was 5000 µg/mL; with Micrococcus luteus [3], 5000 µg/mL; in the series with Candida albicans [5], 200 µg/mL; with Cryptococcus neoformans [7], 300 µg/mL; in the series on Aspergillus niger [9], greater than 5000 µg/mL; in series [10], greater than 5000 µg/mL. Moreover, the Activity with Saccharomyces cerevisiae [11] worked out at 3000 µg/mL; in the series on Candida albicans [12], 20 µg/mL; in the series with Cryptococcus neoformans [13], 80 µg/mL.
`COc1c(O)cc2ccc(=O)oc2c1OC`: the IC50 (with Micrococcus luteus [1]; in series [4]; in the series on Mycobacterium avium; in the series on Aspergillus niger [6]; in the series on Candida albicans [12]; in the series on Cryptococcus neoformans [13]) was greater than 1000 µg/mL each time. The 50% inhibitory concentration (IC50) in the series with Saccharomyces cerevisiae [14] and in the series with Staphylococcus aureus [15] was greater than 1000 µg/mL in each case. Moreover, the Activity (in the series with Staphylococcus aureus [2]; in the series on Micrococcus luteus [3]; in the series on Candida albicans [5]; in the series with Cryptococcus neoformans [7]; with Aspergillus niger [9]; in series [10]) was greater than 1000 µg/mL in each case. In addition, the Activity with Saccharomyces cerevisiae [11] was greater than 1000 µg/mL. Further, the EC50 in the series on LNCaP, in the series with KB (setting [16]) and in the series with Lu1 was greater than 5 µg/mL each time. Also, in [8], the CC50 is greater than 5 µg/mL.
In the case of `COC1=CC(=O)c2c(O)cc(C)cc2C1=O`, the IC50 amounted to 50 µg/mL (≈ 229 µM) in the series with Micrococcus luteus [1]; 50 µg/mL (≈ 229 µM) in [4]; 50 µg/mL (≈ 229 µM) with Mycobacterium avium; 100 µg/mL (≈ 458 µM) in the series on Aspergillus niger [6]; 100 µg/mL (≈ 458 µM) with Candida albicans [12]; 50 µg/mL (≈ 229 µM) with Cryptococcus neoformans [13]. In addition, the concentration for half-maximal inhibition (IC50) in the series with Saccharomyces cerevisiae [14] was 50 µg/mL (≈ 229 µM); in the series on Staphylococcus aureus [15] it was 200 µg/mL (≈ 917 µM). The Activity was 400 µg/mL in the series on Staphylococcus aureus [2]; 800 µg/mL with Micrococcus luteus [3]; 800 µg/mL in the series on Candida albicans [5]; 200 µg/mL with Cryptococcus neoformans [7]; greater than 1000 µg/mL with Aspergillus niger [9]; 800 µg/mL in series [10]. Also, in the series on Saccharomyces cerevisiae [11], the Activity was determined as 200 µg/mL. In addition, the EC50 in the series with LNCaP was 3.4 µg/mL (≈ 15.6 µM); in the series on KB (setting [16]), 1.9 µg/mL (≈ 8.71 µM); in the series with Lu1, 0.2 µg/mL (≈ 0.917 µM). In addition, the CC50 in [8] is 2 µg/mL (≈ 9.17 µM).
Consider `COC1=CC(=O)c2cc(C)cc(O)c2C1=O`, for which the IC50 in the series on Micrococcus luteus [1] is 700 µg/mL (≈ 3210 µM); in series [4], greater than 1000 µg/mL; in the series with Mycobacterium avium, 700 µg/mL (≈ 3210 µM); with Aspergillus niger [6], greater than 1000 µg/mL; in the series on Candida albicans [12], greater than 1000 µg/mL; with Cryptococcus neoformans [13], greater than 1000 µg/mL. Besides, the concentration for half-maximal inhibition (IC50) in the series on Saccharomyces cerevisiae [14] and in the series with Staphylococcus aureus [15] was greater than 1000 µg/mL in each case. In addition, the Activity (with Staphylococcus aureus [2]; with Micrococcus luteus [3]; in the series on Candida albicans [5]; in the series on Cryptococcus neoformans [7]; with Aspergillus niger [9]; in series [10]) was greater than 1000 µg/mL throughout. In the series with Saccharomyces cerevisiae [11], the Activity is greater than 1000 µg/mL. The EC50 in the series with LNCaP came out at 4.1 µg/mL (≈ 18.8 µM); with KB (setting [16]) it was 2.4 µg/mL (≈ 11 µM); in the series with Lu1 it was 1.8 µg/mL (≈ 8.25 µM). In addition, in [8], the CC50 was 5.5 µg/mL (≈ 25.2 µM).
Take `C=C(C)[C@@H]1CC[C@]2(C)CC[C@]3(C)[C@H](CC[C@@H]4[C@@]5(C)CC[C@H](O)C(C)(C)[C@@H]5CC[C@]43C)[C@@H]12` [LUPEOL]: the IC50 (in the series on Micrococcus luteus [1]; in [4]; in the series with Mycobacterium avium; with Aspergillus niger [6]; in the series on Candida albicans [12]; in the series with Cryptococcus neoformans [13]) was greater than 1000 µg/mL in each case. For the same compound, the IC50 in the series on Saccharomyces cerevisiae [14] and with Staphylococcus aureus [15] was greater than 1000 µg/mL in each case. In addition, the Activity (in the series with Staphylococcus aureus [2]; with Micrococcus luteus [3]; in the series on Candida albicans [5]; in the series with Cryptococcus neoformans [7]; with Aspergillus niger [9]; in series [10]) was greater than 1000 µg/mL in each case. In the series with Saccharomyces cerevisiae [11], the Activity was greater than 1000 µg/mL. The EC50 in the series with LNCaP, in the series on KB (setting [16]) and in the series on Lu1 was greater than 5 µg/mL in each case. For the same compound, the CC50 in [8] was greater than 5 µg/mL.
As to `C=C(C)[C@@H]1CC[C@]2(CO)CC[C@]3(C)[C@H](CC[C@@H]4[C@@]5(C)CC[C@H](O)C(C)(C)[C@@H]5CC[C@]43C)[C@@H]12` [BETULIN], the EC50 in the series with LNCaP, in the series with KB (setting [16]) and with Lu1 was greater than 5 µg/mL in each case. In addition, the CC50 in series [8] is greater than 5 µg/mL.
Turning to `CC[C@@]1(O)C(=O)OCc2c1cc1n(c2=O)Cc2cc3ccccc3nc2-1` [CAMPTOTHECIN], the EC50 with KB (read-out: EC50) was determined as 0.01 µg/mL (≈ 0.0287 µM).
